Measured values published in paper PMC6440969, “Functional and structural similarities of D7 proteins in the independently-evolved salivary secretions of sand flies and mosquitoes” (Scientific Reports, 2019).
pKd: −log10 of the molar value. Read-outs that look alike come from different tables or passages of the source.

Legend:
[1] = target: T1, P. papatasi D7 protein AGE83092 (Phlebotomus papatasi, UniProt M1JMQ7); test: biochemical; type: binding
T1 construct: made in house; host or cells: E. coli BL21 (DE3) pLysS
T1 sequence (M1JMQ7 20-254 limits assumed): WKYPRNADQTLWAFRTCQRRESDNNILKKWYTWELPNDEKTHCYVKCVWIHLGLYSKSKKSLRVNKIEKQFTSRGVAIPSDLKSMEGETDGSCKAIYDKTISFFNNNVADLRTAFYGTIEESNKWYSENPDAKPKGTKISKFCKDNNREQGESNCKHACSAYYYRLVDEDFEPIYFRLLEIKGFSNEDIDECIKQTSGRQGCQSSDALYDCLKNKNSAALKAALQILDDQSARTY
Protocol: (§1) For cysteinyl leukotriene experiments, the calorimeter cell was filled with P. papatasi D7 protein AGE83092 (A–C) or P. duboscqi ABI15936 (E–G) at 2 μM in Tris-buffered saline. The syringe contained 20 μM LTC4 (A,E), LTD4 (B,F) and LTE4 (C,G) in the same buffer. Injections (10 µL) were spaced at 300 s intervals. […] The syringe concentration was 50 µM AGE83092 and 100 µM for ABI15936. Heats were recorded on a VP-ITC MicroCalorimeter and data were fit using a single binding site model on the MicroCal software package (Origin 7) for calculation of thermodynamic parameters. Titration curves are representative of at least 3 measurements.
(§2) Proteins were diluted in 20 mM tris pH 7.4, 150 mM NaCl and degassed. […] These were sonicated for 10 minutes in a water bath sonicator and degassed before use. Biogenic amines were dissolved in the same buffer and degassed. Heats were measured with a MicroCal VP-ITC calorimeter (Malvern, United Kingdom) using 10 μl ligand injections over periods of 20 seconds with 300 seconds spacing the injections. The measured heats were integrated and fit to a single-site binding model using the MicroCal Origin software.

P. duboscqi ABI15936 = target: T2, P. duboscqi ABI15936 (Phlebotomus duboscqi, UniProt Q06KA2); test: biochemical; type: binding; settings: for affinities (1/Ka): range printed for both proteins (AGE83092 and ABI15936) together; for binding of biogenic amines: ITC (Fig. S1)
T2 construct: made in house; host or cells: E. coli BL21 (DE3) pLysS
T2 sequence (Q06KA2 20-249 limits assumed): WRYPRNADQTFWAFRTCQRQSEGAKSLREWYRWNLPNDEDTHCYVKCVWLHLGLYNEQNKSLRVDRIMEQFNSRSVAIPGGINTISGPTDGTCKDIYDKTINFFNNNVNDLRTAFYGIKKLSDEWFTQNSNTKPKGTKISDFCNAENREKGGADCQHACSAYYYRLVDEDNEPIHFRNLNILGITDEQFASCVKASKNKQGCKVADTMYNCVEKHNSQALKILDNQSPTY
Protocol: as §1
Figure 7 Binding pocket interactions in ABI15936. (A) Stereoview of bound Triton X-100 with weighted omit electron density (Fo-Fc) contoured at 3 σ covering the ligand. Carbon atoms are colored green and oxygen atoms are colored red (B). […] In the protein, carbon is colored light grey, oxygen is colored red and nitrogen is colored blue. […] The refined position is shown in green and the rotated position in white.
as §2

AeD7 = test system: AeD7; design: method as in PMID 19234127, PMID 21152418; settings: cited from earlier work
AnStD7L1 = settings: cited from earlier work
[2] = ITC, single binding site model, Tris-buffered saline, protein 2 μM (10 µM for U46619), protein prepared with Triton X-100
[3] = ITC, single binding site model, protein prepared with Triton X-100
[4] = ITC, protein prepared without Triton X-100

Row | Compound | Ka [1] | ΔH ([1]; ITC, single binding site model) | Ka (P. duboscqi ABI15936; [2]) | ΔH (P. duboscqi ABI15936; [3]) | affinities (1/Ka) (P. duboscqi ABI15936; ITC) | binding of biogenic amines (P. duboscqi ABI15936) | also measured
1 | CCCCC/C=C\C\C=C/C=C/C=C/[C@@H](SC[C@H](NC(=O)CC[C@H](N)C(=O)O)C(=O)NCC(=O)O)[C@@H](O)CCCC(=O)O [LTC4] | 1.7e+08 M⁻¹ | -10.3 kcal/mol | 3.1e+08 M⁻¹ | -8.6 kcal/mol | 2 to 6 nM | – | affinities (1/Ka) [1]: 2 to 6 nM; Ka (P. duboscqi ABI15936; [4]): 2.2e+08 M⁻¹; ΔH (P. duboscqi ABI15936; [4]): -10.0 kcal/mol
2 | CCCCC/C=C\C\C=C/C=C/C=C/[C@@H](SC[C@H](N)C(=O)NCC(=O)O)[C@@H](O)CCCC(=O)O [LTD4] | – | -10.2 kcal/mol | – | -8.9 kcal/mol | – | – | pKd ([1]; Ka): 8.76; pKd ([1]; affinities (1/Ka)): 8.22 to 8.70; pKd (P. duboscqi ABI15936; Ka): 8.38; pKd (P. duboscqi ABI15936; affinities (1/Ka)): 8.22 to 8.70
3 | NCCc1c[nH]cn1 [histamine] | – | – | – | – | – | did not bind | binding of biogenic amines [1]: did not bind
4 | NCCc1c[nH]c2ccc(O)cc12 [serotonin] | – | – | – | – | – | did not bind | binding of biogenic amines ([1]; ITC (Fig. S1)): did not bind
5 | CCCCC/C=C\C\C=C/C=C/C=C/[C@@H](SC[C@H](N)C(=O)O)[C@@H](O)CCCC(=O)O [LTE4] | 6.3e+07 M⁻¹ | -11.3 kcal/mol | 3.4e+07 M⁻¹ | -7.0 kcal/mol | 16 to 29 nM | – | –
6 | CCCCC[C@H](O)/C=C/[C@@H]1[C@@H](C/C=C\CCCC(=O)O)[C@H]2CO[C@@H]1C2 [U46619] | 1.33e+06 M⁻¹ | – | 780000 M⁻¹ | -11.5 kcal/mol | – | – | affinity for AeD7 (AeD7): no affinity; ΔH [1]: -8.5 kcal/mol; pKd ([1]; read-out: affinity constant): ~6.12; binding to AnStD7L1 (AnStD7L1): bound; pKd (P. duboscqi ABI15936; ITC, read-out: affinity constant): ~5.89
